{
  "source": "patent US20140073637A1",
  "about": "“AMINO-SUBSTITUTED-ALKYLOXY-BENZO[E]PYRIDO[4,3-B]INDOLE DERIVATIVES AS NEW POTENT KINASE INHIBITORS” (INSTITUT CURIE, priority 2011, published 2014)",
  "key": {"121 kinases": {"test_system": "121 kinases", "assay": "Kinase profiling on a set of 121 kinases", "assay_type": "biochemical", "conditions": "for Known Targets (%): kinases presenting the highest inhibitions, lists not exhaustive", "procedure": "FIG. 1A: The potential inhibition of C14 was tested against 121 kinases, in vitro, at the concentration of 1 μM. The kinase activities, in the presence of C14, are represented, each kinase being represented by a vertical bar. Only 18 kinases have less than 30% activity in the presence of C14.\n(§1) The specificity of C14 was tested, in vitro, against 121 kinases representative of the kinome. Assays run in duplicate, at the concentration of 1 μM, were performed by MRC (Dundee, UK). Results are represented in FIG. 1. The main targets are highlighted in FIG. 1B.\n(§2) The profiling was performed at the MRC (Dundee University), in duplicate, on a set of 121 kinases. The panel is representative of the major different classes of kinases. Compounds were used at the concentration of 1 μM. In vitro, IC50 were determined on recombinant kinases by Reaction biology Corp (USA)."}, "Src": {"target": "Src (Homo sapiens, UniProt P12931)", "sequence (P12931 whole entry, species assumed)": "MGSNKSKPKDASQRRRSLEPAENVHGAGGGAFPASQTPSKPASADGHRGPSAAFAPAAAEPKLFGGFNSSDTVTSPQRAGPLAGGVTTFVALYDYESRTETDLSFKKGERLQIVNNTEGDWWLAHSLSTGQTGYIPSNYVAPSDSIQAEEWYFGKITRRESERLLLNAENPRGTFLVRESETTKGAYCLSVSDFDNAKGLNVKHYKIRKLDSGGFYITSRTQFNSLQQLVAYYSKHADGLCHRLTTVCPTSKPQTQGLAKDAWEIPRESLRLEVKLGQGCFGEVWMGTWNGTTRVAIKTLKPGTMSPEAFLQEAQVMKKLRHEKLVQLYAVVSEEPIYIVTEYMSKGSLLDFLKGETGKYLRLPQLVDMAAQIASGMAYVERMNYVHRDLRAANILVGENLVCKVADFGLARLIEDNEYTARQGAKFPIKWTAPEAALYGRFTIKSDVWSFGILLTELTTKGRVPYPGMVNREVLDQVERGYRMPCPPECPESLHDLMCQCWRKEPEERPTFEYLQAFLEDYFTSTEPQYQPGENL", "assay": "In vitro assay against recombinant kinases (FIG. 2)", "assay_type": "biochemical", "procedure": "(§3) Assays were run in vitro against recombinant kinases. The activity is reported for each kinase, grey histograms for CH21, white for C14 and gradation grey for C1. […] Therefore, C1 and C14 affect differently the Aurora kinase family.\nas §2"}, "RSK1": {"target": "RSK1 (Homo sapiens, UniProt Q15418)", "sequence (Q15418 whole entry, species assumed)": "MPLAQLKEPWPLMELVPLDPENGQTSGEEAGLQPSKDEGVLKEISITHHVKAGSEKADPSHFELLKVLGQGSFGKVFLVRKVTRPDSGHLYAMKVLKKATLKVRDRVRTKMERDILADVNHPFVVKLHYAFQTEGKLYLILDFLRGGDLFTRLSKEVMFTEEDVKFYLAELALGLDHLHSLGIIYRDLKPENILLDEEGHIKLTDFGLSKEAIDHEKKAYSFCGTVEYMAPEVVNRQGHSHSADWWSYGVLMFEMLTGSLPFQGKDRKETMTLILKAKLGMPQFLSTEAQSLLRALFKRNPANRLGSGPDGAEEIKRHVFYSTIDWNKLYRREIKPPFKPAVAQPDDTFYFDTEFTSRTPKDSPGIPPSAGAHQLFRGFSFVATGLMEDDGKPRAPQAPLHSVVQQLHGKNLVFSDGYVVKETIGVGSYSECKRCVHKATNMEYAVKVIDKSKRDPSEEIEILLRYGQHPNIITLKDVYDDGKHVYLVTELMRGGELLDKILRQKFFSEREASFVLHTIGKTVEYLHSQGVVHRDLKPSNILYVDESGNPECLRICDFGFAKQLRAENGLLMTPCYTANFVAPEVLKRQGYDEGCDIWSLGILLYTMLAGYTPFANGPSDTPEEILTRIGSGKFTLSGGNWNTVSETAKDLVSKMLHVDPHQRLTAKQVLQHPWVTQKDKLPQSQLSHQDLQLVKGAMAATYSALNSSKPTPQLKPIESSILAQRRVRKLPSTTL", "assay": "In vitro assay against recombinant kinases (FIG. 2)", "assay_type": "biochemical", "procedure": "as §3, §2"}, "RSK2": {"target": "RSK2 (Homo sapiens, UniProt P51812)", "sequence (P51812 whole entry)": "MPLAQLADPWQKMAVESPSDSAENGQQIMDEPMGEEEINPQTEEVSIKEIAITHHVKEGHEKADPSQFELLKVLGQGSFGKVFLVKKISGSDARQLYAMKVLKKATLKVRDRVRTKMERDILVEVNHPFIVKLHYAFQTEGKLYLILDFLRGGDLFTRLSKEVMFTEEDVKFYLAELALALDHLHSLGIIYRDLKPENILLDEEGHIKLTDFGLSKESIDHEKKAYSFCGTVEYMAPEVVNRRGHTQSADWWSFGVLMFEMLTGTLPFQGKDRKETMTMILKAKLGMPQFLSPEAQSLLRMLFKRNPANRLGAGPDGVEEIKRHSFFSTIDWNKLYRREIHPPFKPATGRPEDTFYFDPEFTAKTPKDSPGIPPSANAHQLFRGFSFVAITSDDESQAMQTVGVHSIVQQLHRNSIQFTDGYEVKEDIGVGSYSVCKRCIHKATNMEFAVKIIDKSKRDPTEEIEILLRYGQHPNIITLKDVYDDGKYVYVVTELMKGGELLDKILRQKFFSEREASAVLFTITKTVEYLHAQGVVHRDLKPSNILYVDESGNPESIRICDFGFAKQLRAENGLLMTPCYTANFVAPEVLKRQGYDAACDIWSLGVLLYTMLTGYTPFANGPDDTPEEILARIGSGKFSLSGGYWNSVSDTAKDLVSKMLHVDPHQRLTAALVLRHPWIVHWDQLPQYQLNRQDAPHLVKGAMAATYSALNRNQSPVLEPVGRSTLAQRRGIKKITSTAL", "assay": "In vitro assay against recombinant kinases (FIG. 2)", "assay_type": "biochemical", "procedure": "as §3, §2"}, "Aurora A": {"target": "T1, Aurora A (Homo sapiens, UniProt O14965)", "T1 sequence (O14965 1-403)": "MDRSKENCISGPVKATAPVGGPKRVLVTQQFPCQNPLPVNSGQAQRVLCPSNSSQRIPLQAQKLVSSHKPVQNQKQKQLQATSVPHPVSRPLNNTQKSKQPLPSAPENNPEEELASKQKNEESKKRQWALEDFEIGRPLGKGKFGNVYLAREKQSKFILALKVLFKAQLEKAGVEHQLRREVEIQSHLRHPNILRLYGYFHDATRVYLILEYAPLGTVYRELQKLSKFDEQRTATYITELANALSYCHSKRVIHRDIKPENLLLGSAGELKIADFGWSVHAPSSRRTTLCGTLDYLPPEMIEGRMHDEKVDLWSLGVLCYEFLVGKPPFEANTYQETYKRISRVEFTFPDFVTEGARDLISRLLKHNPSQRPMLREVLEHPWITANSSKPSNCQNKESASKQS", "assay": "Kinase profiling in vitro at 1 μM", "assay_type": "biochemical", "conditions": "for remaining activity at 1 µM / effect on kinase activity (FIG. 2, in words): Aurora A; for remaining activity at 1 µM: compound at 1 μM, read-out: percentage of remaining activity of recombinant kinase; for effect on kinase activity (FIG. 2, in words): recombinant kinase in vitro", "procedure": "as §3, §1\nIn addition, the percentage of remaining activity of recombinant kinases Aurora kinases A and B and Checkpoint kinases 1 and 2 at the concentration of 1 μM of C1, C2 and C14 have been determined.\nas §2"}, "H358 cells": {"test_system": "H358 cells", "assay": "Cell viability test (CellTiter 96 AQueous One Solution)", "assay_type": "cell-based", "conditions": "for IC50: Homo sapiens, NCI-H358, H358 (Lung), 72 h of treatment, read-out: IC50 (cell line viability)", "procedure": "(§4) H358, H322 (lung cancer cells), U373 (glioblastomes) and HeLa ([…]) were grown in DMEM (1.5 g/L glucose) whereas HL60 (human myeloid cell line) cells were in RPMI 1640. U2OS (a human osteosarcoma cell line) cells were cultured in McCoy's Medium 5 A and liver cells (SK Hep 1) in DMEM (4 g/L glucose, (Gibco-Invitrogen). Media (Gibco-Invitrogen), were supplemented with 10% heat-inactivated foetal bovine serum (Gibco-Invitrogen), L-glutamine (2 mM), penicillin (100 UI/ml) and streptomycin (100 μg/ml).\n(§5) Cell proliferation assays were conducted in 96 well culture plates. Assays were run in triplicate. Cell viability was estimated upon 72 h of treatment with varying concentrations of compound by addition of CellTiter 96Queous one Solution Reagent (Promega) directly to culture wells under conditions defined by the manufacturer."}, "U373": {"test_system": "U373", "assay": "Cell viability test (CellTiter 96 AQueous One Solution)", "assay_type": "cell-based", "conditions": "Homo sapiens, U373 MG; U373 (Glioblastoma); 72 h of treatment; read-out: IC50 (cell line viability)", "procedure": "as §4, §5"}, "HL60": {"test_system": "HL60", "assay": "Cell viability test (CellTiter 96 AQueous One Solution)", "assay_type": "cell-based", "conditions": "Homo sapiens, HL-60; HL60 (Leukemia); 72 h of treatment; read-out: IC50 (cell line viability)", "procedure": "as §4, §5"}, "U2OS": {"test_system": "U2OS", "assay": "Cell viability test (CellTiter 96 AQueous One Solution)", "assay_type": "cell-based", "conditions": "Homo sapiens; U2OS (Osteosarcoma); 72 h of treatment; read-out: IC50 (cell line viability) (converted)", "procedure": "as §4, §5"}},
  "data": [
    {"smiles": "CCc1c[nH]c(=O)c2c1[nH]c1ccc3cc(OC)ccc3c12", "note": "[Compound C1, reference compound]", "values": [
      {"measurement": "Known Targets (%)", "setting": "121 kinases", "value": "Aurora A Aurora B Chk2 FLT3 Melk"},
      {"measurement": "effect on kinase activity (FIG. 2, in words)", "setting": "Src", "value": "highly inhibited"},
      {"measurement": "effect on kinase activity (FIG. 2, in words)", "setting": "RSK1", "value": "highly inhibited"},
      {"measurement": "effect on kinase activity (FIG. 2, in words)", "setting": "RSK2", "value": "highly inhibited"},
      {"measurement": "remaining activity at 1 µM", "setting": "Aurora A", "value": 7, "unit": "%"},
      {"measurement": "effect on kinase activity (FIG. 2, in words)", "setting": "Aurora A", "value": "highly inhibited"},
      {"measurement": "IC50", "setting": "H358 cells", "value": 145, "unit": "nM"},
      {"measurement": "IC50", "setting": "U373", "value": "> 1000", "unit": "nM"},
      {"measurement": "IC50", "setting": "HL60", "value": 350, "unit": "nM"},
      {"measurement": "IC50", "setting": "U2OS", "value": "> 1000", "unit": "nM"}
    ]},
    {"smiles": "Cc1cncc2c1[nH]c1ccc3cc(OCCN(C)C)ccc3c12", "note": "[CH21, 3-(2-N,N-dimethylaminoethyloxy)-8-methyl-7H-benzo[e]pyrido(4,3-b)indole]", "values": [
      {"measurement": "Known Targets (%)", "setting": "121 kinases", "value": "NUAK1 TrkA Tak1 Gck Flt3"},
      {"measurement": "effect on kinase activity (FIG. 2, in words)", "setting": "Src", "value": "None of these kinases were significantly affected"},
      {"measurement": "effect on kinase activity (FIG. 2, in words)", "setting": "RSK1", "value": "None of these kinases were significantly affected"},
      {"measurement": "effect on kinase activity (FIG. 2, in words)", "setting": "RSK2", "value": "None of these kinases were significantly affected"},
      {"measurement": "effect on kinase activity (FIG. 2, in words)", "setting": "Aurora A", "value": "None of these kinases were significantly affected"},
      {"measurement": "IC50", "setting": "H358 cells", "value": 450, "unit": "nM"},
      {"measurement": "IC50", "setting": "U373", "value": 360, "unit": "nM"},
      {"measurement": "IC50", "setting": "HL60", "value": "> 2000", "unit": "nM"},
      {"measurement": "IC50", "setting": "U2OS", "value": 1100, "unit": "nM"}
    ]},
    {"smiles": "Cc1c[nH]c(=O)c2c1[nH]c1ccc3cc(OCCN(C)C)ccc3c12", "note": "[Compound C14, 3-(2-N,N-Dimethylaminoethoxy)-8-methyl-7H,10H-benzo[e]pyrido(4,3-b)indol-11-one]", "values": [
      {"measurement": "number of kinases with less than 30% activity in the presence of compound", "setting": "121 kinases; 121 kinases tested in vitro at 1 μM", "value": 18},
      {"measurement": "Known Targets (%)", "setting": "121 kinases", "value": "Aurora B NUAK1 TrkA Tak1 Gck Chk1 Chk2"},
      {"measurement": "effect on kinase activity (FIG. 2, in words)", "setting": "Src", "value": "not affected"},
      {"measurement": "effect on kinase activity (FIG. 2, in words)", "setting": "RSK1", "value": "not affected"},
      {"measurement": "effect on kinase activity (FIG. 2, in words)", "setting": "RSK2", "value": "not affected"},
      {"measurement": "remaining activity at 1 µM", "setting": "Aurora A", "value": 76, "unit": "%"},
      {"measurement": "effect on kinase activity (FIG. 2, in words)", "setting": "Aurora A", "value": "not affected"},
      {"measurement": "remaining activity", "setting": "Aurora A; at 1 μM", "value": 76, "unit": "%"},
      {"measurement": "death of cycling cells", "setting": "H358 cells; 0.5 μM, cycling H358 cells", "value": "more than 50%"},
      {"measurement": "IC50", "setting": "H358 cells", "value": 470, "unit": "nM"},
      {"measurement": "IC50", "setting": "U373", "value": 3100, "unit": "nM"},
      {"measurement": "IC50", "setting": "HL60", "value": "> 2000", "unit": "nM"},
      {"measurement": "IC50", "setting": "U2OS", "value": 720, "unit": "nM"}
    ]}
  ]
}
